From PubChem BioAssay (NCI)
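Cultured in 96-well plates, cells were exposed to test compound for 48 hours across five concentrations. GI50 = concentration required for 50% inhibition of growth. TGI marks complete inhibition of growth.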

Experiments:
Assay in all cases: NCI-60 cell line screen, 48 h
HS 578T breast = tested on: HS 578T breast
HCT-15 colon = tested on: HCT-15 colon
EKVX NSCLC = tested on: EKVX NSCLC
U251 CNS = tested on: U251 CNS
NCI-H522 lung = tested on: NCI-H522 lung
RPMI-8226 leukemia = tested on: RPMI-8226 leukemia
SK-MEL-5 melanoma = tested on: SK-MEL-5 melanoma
SF-268 CNS = tested on: SF-268 CNS
HCT-116 colon = tested on: HCT-116 colon
OVCAR-5 ovarian = tested on: OVCAR-5 ovarian
ACHN renal = tested on: ACHN renal
UACC-62 melanoma = tested on: UACC-62 melanoma
T-47D breast = tested on: T-47D breast
HOP-62 NSCLC = tested on: HOP-62 NSCLC
OVCAR-8 ovarian = tested on: OVCAR-8 ovarian
IGROV1 ovarian = tested on: IGROV1 ovarian
UO-31 renal = tested on: UO-31 renal
M14 melanoma = tested on: M14 melanoma
NCI/ADR-RES ovarian = tested on: NCI/ADR-RES ovarian
OVCAR-3 ovarian = tested on: OVCAR-3 ovarian
COLO 205 colon = tested on: COLO 205 colon
SR leukemia = tested on: SR leukemia
LOX IMVI melanoma = tested on: LOX IMVI melanoma
SN12C renal = tested on: SN12C renal
MALME-3M melanoma = tested on: MALME-3M melanoma
K-562 leukemia = tested on: K-562 leukemia
MOLT-4 leukemia = tested on: MOLT-4 leukemia
MDA-MB-468 breast = tested on: MDA-MB-468 breast
BT-549 breast = tested on: BT-549 breast
HOP-92 NSCLC = tested on: HOP-92 NSCLC
HL-60(TB) leukemia = tested on: HL-60(TB) leukemia
SW-620 colon = tested on: SW-620 colon
MCF7 breast = tested on: MCF7 breast
NCI-H460 lung = tested on: NCI-H460 lung
HT29 colon = tested on: HT29 colon
CCRF-CEM leukemia = tested on: CCRF-CEM leukemia
786-0 renal = tested on: 786-0 renal
SF-295 CNS = tested on: SF-295 CNS
CAKI-1 renal = tested on: CAKI-1 renal
PC-3 prostate = tested on: PC-3 prostate
HCC-2998 colon = tested on: HCC-2998 colon
MDA-MB-435 = tested on: MDA-MB-435
SF-539 CNS = tested on: SF-539 CNS
MDA-MB-231 breast = tested on: MDA-MB-231 breast
A498 renal = tested on: A498 renal
SK-MEL-28 melanoma = tested on: SK-MEL-28 melanoma
NCI-H23 lung = tested on: NCI-H23 lung
SK-MEL-2 melanoma = tested on: SK-MEL-2 melanoma
NCI-H226 lung = tested on: NCI-H226 lung
KM12 colon = tested on: KM12 colon
SK-OV-3 ovarian = tested on: SK-OV-3 ovarian
A549 NSCLC = tested on: A549 NSCLC
UACC-257 melanoma = tested on: UACC-257 melanoma
TK-10 renal = tested on: TK-10 renal
OVCAR-4 ovarian = tested on: OVCAR-4 ovarian
SNB-19 CNS = tested on: SNB-19 CNS
RXF 393 renal = tested on: RXF 393 renal
DU-145 prostate = tested on: DU-145 prostate

`O=S(=O)(Nc1cccc(-n2cnc3cc(-c4ccc(O)cc4)ccc32)c1)C1CC1` was tested. Which GI50 (HS 578T breast) did it give?
The GI50 was 1.93 µM.

And the TGI (HS 578T breast)?
Its TGI is 7.42 µM.

And the GI50 (HCT-15 colon)?
The GI50 was 1.62 µM.

And the TGI (HCT-15 colon)?
Its TGI is 14.1 µM.

And the GI50 (EKVX NSCLC)?
The GI50 was 6.56 µM.

What about the TGI (EKVX NSCLC) of the same compound?
The TGI was 21.6 µM.

What about the GI50 (U251 CNS) of the same compound?
The GI50 was 2.65 µM.

What about the TGI (U251 CNS) of the same compound?
The TGI was 13.8 µM.

What about the GI50 (NCI-H522 lung) of the same compound?
The GI50 was 0.82 µM.

What about the TGI (NCI-H522 lung) of the same compound?
Its TGI is 3.66 µM.

What about the GI50 (RPMI-8226 leukemia) of the same compound?
Its GI50 is 2.83 µM.

What about the TGI (RPMI-8226 leukemia) of the same compound?
Its TGI is 9.46 µM.

What about the GI50 (SK-MEL-5 melanoma) of the same compound?
Its GI50 is 3.13 µM.

And the TGI (SK-MEL-5 melanoma)?
The TGI was 14.1 µM.

What about the GI50 (SF-268 CNS) of the same compound?
Its GI50 is 3.79 µM.

What about the TGI (SF-268 CNS) of the same compound?
The TGI was 17.2 µM.

What about the GI50 (HCT-116 colon) of the same compound?
The GI50 was 2.82 µM.

What about the TGI (HCT-116 colon) of the same compound?
Its TGI is 15.3 µM.

And the GI50 (OVCAR-5 ovarian)?
Its GI50 is 6.77 µM.

And the TGI (OVCAR-5 ovarian)?
Its TGI is 20.6 µM.

And the GI50 (ACHN renal)?
The GI50 was 4.86 µM.

What about the TGI (ACHN renal) of the same compound?
The TGI was 16.8 µM.

What about the GI50 (UACC-62 melanoma) of the same compound?
Its GI50 is 1.62 µM.

And the TGI (UACC-62 melanoma)?
The TGI was 14.3 µM.

And the GI50 (T-47D breast)?
The GI50 was 2.73 µM.

And the TGI (T-47D breast)?
The TGI was 14.5 µM.

And the GI50 (HOP-62 NSCLC)?
The GI50 was 4.63 µM.

What about the TGI (HOP-62 NSCLC) of the same compound?
The TGI was 19.4 µM.

What about the GI50 (OVCAR-8 ovarian) of the same compound?
The GI50 was 3.23 µM.

And the TGI (OVCAR-8 ovarian)?
Its TGI is 14.5 µM.

And the GI50 (IGROV1 ovarian)?
The GI50 was 4.58 µM.

And the TGI (IGROV1 ovarian)?
The TGI was 17.7 µM.

And the GI50 (UO-31 renal)?
Its GI50 is 2.19 µM.

What about the TGI (UO-31 renal) of the same compound?
The TGI was 13.9 µM.

And the GI50 (M14 melanoma)?
Its GI50 is 2.36 µM.

And the TGI (M14 melanoma)?
The TGI was 17.6 µM.

And the GI50 (NCI/ADR-RES ovarian)?
Its GI50 is 3.52 µM.

What about the TGI (NCI/ADR-RES ovarian) of the same compound?
The TGI was 36.5 µM.

And the GI50 (OVCAR-3 ovarian)?
The GI50 was 2.14 µM.

And the TGI (OVCAR-3 ovarian)?
Its TGI is 10.3 µM.

And the GI50 (COLO 205 colon)?
Its GI50 is 3.17 µM.

What about the TGI (COLO 205 colon) of the same compound?
Its TGI is 11.1 µM.

And the GI50 (SR leukemia)?
The GI50 was 0.391 µM.

What about the TGI (SR leukemia) of the same compound?
The TGI was 65.5 µM.

What about the GI50 (LOX IMVI melanoma) of the same compound?
The GI50 was 3.14 µM.

And the TGI (LOX IMVI melanoma)?
Its TGI is 14.7 µM.

And the GI50 (SN12C renal)?
The GI50 was 3.7 µM.

And the TGI (SN12C renal)?
Its TGI is 15.1 µM.

What about the GI50 (MALME-3M melanoma) of the same compound?
The GI50 was 3.54 µM.

And the TGI (MALME-3M melanoma)?
The TGI was 18.4 µM.

What about the GI50 (K-562 leukemia) of the same compound?
Its GI50 is 0.546 µM.

What about the TGI (K-562 leukemia) of the same compound?
Its TGI is greater than 100 µM.

And the GI50 (MOLT-4 leukemia)?
Its GI50 is 2.01 µM.

What about the TGI (MOLT-4 leukemia) of the same compound?
The TGI was 14.1 µM.

What about the GI50 (MDA-MB-468 breast) of the same compound?
Its GI50 is 1.44 µM.

What about the TGI (MDA-MB-468 breast) of the same compound?
The TGI was 6.58 µM.

And the GI50 (BT-549 breast)?
Its GI50 is 2.59 µM.

What about the TGI (BT-549 breast) of the same compound?
The TGI was 12.5 µM.

What about the GI50 (HOP-92 NSCLC) of the same compound?
Its GI50 is 1.43 µM.

What about the TGI (HOP-92 NSCLC) of the same compound?
The TGI was 8.43 µM.

And the GI50 (HL-60(TB) leukemia)?
The GI50 was 1.38 µM.

What about the TGI (HL-60(TB) leukemia) of the same compound?
Its TGI is 5.63 µM.

And the GI50 (SW-620 colon)?
The GI50 was 1.5 µM.

What about the TGI (SW-620 colon) of the same compound?
The TGI was 17.4 µM.

What about the GI50 (MCF7 breast) of the same compound?
Its GI50 is 1.96 µM.

What about the TGI (MCF7 breast) of the same compound?
Its TGI is 16.8 µM.

What about the GI50 (NCI-H460 lung) of the same compound?
Its GI50 is 3.03 µM.

And the TGI (NCI-H460 lung)?
The TGI was 13 µM.

What about the GI50 (HT29 colon) of the same compound?
Its GI50 is 2.6 µM.

What about the TGI (HT29 colon) of the same compound?
The TGI was 8.59 µM.

And the GI50 (CCRF-CEM leukemia)?
Its GI50 is 2.62 µM.

And the TGI (CCRF-CEM leukemia)?
The TGI was 14.5 µM.

And the GI50 (786-0 renal)?
Its GI50 is 4.7 µM.

What about the TGI (786-0 renal) of the same compound?
The TGI was 16.9 µM.

What about the GI50 (SF-295 CNS) of the same compound?
Its GI50 is 2.36 µM.

And the TGI (SF-295 CNS)?
The TGI was 11.4 µM.

And the GI50 (CAKI-1 renal)?
The GI50 was 3.25 µM.

What about the TGI (CAKI-1 renal) of the same compound?
The TGI was 14.6 µM.

And the GI50 (PC-3 prostate)?
The GI50 was 3.2 µM.

What about the TGI (PC-3 prostate) of the same compound?
The TGI was 17 µM.

What about the GI50 (HCC-2998 colon) of the same compound?
Its GI50 is 4.4 µM.

And the TGI (HCC-2998 colon)?
Its TGI is 19.6 µM.

And the GI50 (MDA-MB-435)?
The GI50 was 0.311 µM.

And the TGI (MDA-MB-435)?
Its TGI is 1.33 µM.

And the GI50 (SF-539 CNS)?
The GI50 was 1.53 µM.

What about the TGI (SF-539 CNS) of the same compound?
The TGI was 6.1 µM.

And the GI50 (MDA-MB-231 breast)?
Its GI50 is 3.4 µM.

And the TGI (MDA-MB-231 breast)?
Its TGI is 20.8 µM.

What about the GI50 (A498 renal) of the same compound?
Its GI50 is 3.31 µM.

And the TGI (A498 renal)?
The TGI was 10.4 µM.

What about the GI50 (SK-MEL-28 melanoma) of the same compound?
The GI50 was 6.68 µM.

And the TGI (SK-MEL-28 melanoma)?
Its TGI is 20 µM.

And the GI50 (NCI-H23 lung)?
Its GI50 is 5.04 µM.

And the TGI (NCI-H23 lung)?
Its TGI is 20.6 µM.

And the GI50 (SK-MEL-2 melanoma)?
The GI50 was 2.87 µM.

And the TGI (SK-MEL-2 melanoma)?
Its TGI is 14.5 µM.

And the GI50 (NCI-H226 lung)?
Its GI50 is 6.23 µM.

And the TGI (NCI-H226 lung)?
Its TGI is 27.8 µM.

What about the GI50 (KM12 colon) of the same compound?
Its GI50 is 0.654 µM.

And the TGI (KM12 colon)?
The TGI was 13.2 µM.

And the GI50 (SK-OV-3 ovarian)?
Its GI50 is 3.84 µM.

What about the TGI (SK-OV-3 ovarian) of the same compound?
The TGI was 13.4 µM.

What about the GI50 (A549 NSCLC) of the same compound?
Its GI50 is 4.04 µM.

What about the TGI (A549 NSCLC) of the same compound?
Its TGI is 17.1 µM.

What about the GI50 (UACC-257 melanoma) of the same compound?
The GI50 was 10.2 µM.

And the TGI (UACC-257 melanoma)?
Its TGI is 22 µM.

What about the GI50 (TK-10 renal) of the same compound?
Its GI50 is 8.98 µM.

What about the TGI (TK-10 renal) of the same compound?
The TGI was 20.9 µM.

And the GI50 (OVCAR-4 ovarian)?
Its GI50 is 4.03 µM.

And the TGI (OVCAR-4 ovarian)?
The TGI was 17.3 µM.

And the GI50 (SNB-19 CNS)?
The GI50 was 5.95 µM.

What about the TGI (SNB-19 CNS) of the same compound?
The TGI was 19.8 µM.

What about the GI50 (RXF 393 renal) of the same compound?
Its GI50 is 2.19 µM.

What about the TGI (RXF 393 renal) of the same compound?
Its TGI is 7.7 µM.

What about the GI50 (DU-145 prostate) of the same compound?
Its GI50 is 4.19 µM.

What about the TGI (DU-145 prostate) of the same compound?
Its TGI is 15 µM.
